Laboratory results from patent US20140057284A1, “PHOTOLUMINESCENT MOLECULAR COMPLEX AND METHOD FOR DETERMINING OF THE CONCENTRATION OF SAID MOLECULAR COMPLEX” (priority 2011, published 2014).

Each compound was assayed against catalytic subunit of cAMP-dependent protein kinase (PKAc) (Homo sapiens, UniProt P17612) (assay: Binding affinity to PKAc). Conditions: PKAc and some other PKs of the AGC group; in words.

| affinity of binding to PKAc | Structure (SMILES) |
| --- | --- |
| subnanomolar or low nanomolar | N=C(N)NCCC[C@@H](NC(=O)CCCCCNC(=O)c1ccc(-c2ccnc(N)n2)s1)C(=O)NCCCCCC(=O)N[C@H](CCCNC(=N)N)C(=O)N[C@H](CCCNC(=N)N)C(=O)N[C@H](CCCNC(=N)N)C(=O)N[C@H](CCCNC(=N)N)C(=O)N[C@H](CCCNC(=N)N)C(=O)N[C@H](CCCNC(=N)N)C(=O)N[C@H](CCCCN)C(N)=O [ARC-668] |
| subnanomolar or low nanomolar | N=C(N)NCCC[C@@H](NC(=O)[C@@H](CCCNC(=N)N)NC(=O)CCCCCNC(=O)[C@@H](CCCCN)NC(=O)CCCCCNC(=O)c1ccc(-c2ccncc2)s1)C(N)=O [ARC-1121] |
| subnanomolar or low nanomolar | Cc1nccc(-c2ccc(C(=O)NCCCCCC(=O)N[C@H](CCCNC(=N)N)C(=O)NCCCCCC(=O)N[C@H](CCCNC(=N)N)C(=O)N[C@H](CCCNC(=N)N)C(=O)N[C@H](CCCNC(=N)N)C(=O)N[C@H](CCCNC(=N)N)C(=O)N[C@H](CCCNC(=N)N)C(=O)N[C@H](CCCNC(=N)N)C(=O)N[C@H](CCCCN)C(N)=O)s2)n1 [ARC-1123] |
| subnanomolar or low nanomolar | N=C(N)NCCC[C@@H](NC(=O)CCCCCNC(=O)c1ccc(-c2ccncn2)s1)C(=O)NCCCCCC(=O)N[C@H](CCCNC(=N)N)C(=O)N[C@H](CCCNC(=N)N)C(=O)N[C@H](CCCNC(=N)N)C(=O)N[C@H](CCCNC(=N)N)C(=O)N[C@H](CCCNC(=N)N)C(=O)N[C@H](CCCNC(=N)N)C(=O)N[C@H](CCCCN)C(N)=O [ARC-1129] |
| subnanomolar or low nanomolar | N=C(N)NCCC[C@@H](NC(=O)CCCCCNC(=O)c1ccc(-c2ncnc3[nH]cnc23)s1)C(=O)NCCCCCC(=O)N[C@H](CCCNC(=N)N)C(=O)N[C@H](CCCNC(=N)N)C(=O)N[C@H](CCCNC(=N)N)C(=O)N[C@H](CCCNC(=N)N)C(=O)N[C@H](CCCNC(=N)N)C(=O)N[C@H](CCCNC(=N)N)C(=O)N[C@H](CCCCN)C(N)=O [ARC-1132] |
| subnanomolar or low nanomolar | N=C(N)NCCC[C@@H](NC(=O)CCCCCNC(=O)c1ccc(-c2ncnc3[nH]ccc23)s1)C(=O)NCCCCCC(=O)N[C@H](CCCNC(=N)N)C(=O)N[C@H](CCCNC(=N)N)C(=O)N[C@H](CCCNC(=N)N)C(=O)N[C@H](CCCNC(=N)N)C(=O)N[C@H](CCCNC(=N)N)C(=O)N[C@H](CCCNC(=N)N)C(=O)N[C@H](CCCCN)C(N)=O [ARC-1135] |

Further lines, the compound ahead of its results:

| Structure (SMILES) | affinity of binding to PKAc |
| --- | --- |
| N=C(N)NCCC[C@@H](NC(=O)CCCCCNC(=O)c1ccc(-c2ccnc(N)n2)s1)C(=O)NCCCCCC(=O)N[C@H](CCCNC(=N)N)C(=O)N[C@H](CCCNC(=N)N)C(=O)N[C@H](CCCNC(=N)N)C(=O)N[C@H](CCCNC(=N)N)C(=O)N[C@H](CCCNC(=N)N)C(=O)N[C@H](CCCNC(=N)N)C(=O)N[C@H](CCCCNc1ccc([N+](=O)[O-])c2nonc12)C(N)=O [ARC-676] | subnanomolar or low nanomolar |
| N=C(N)NCCC[C@@H](NC(=O)CCCCCNC(=O)c1ccc(-c2ccnc(N)n2)[se]1)C(=O)NCCCCCC(=O)N[C@H](CCCNC(=N)N)C(=O)N[C@H](CCCNC(=N)N)C(=O)N[C@H](CCCNC(=N)N)C(=O)N[C@H](CCCNC(=N)N)C(=O)N[C@H](CCCNC(=N)N)C(=O)N[C@H](CCCNC(=N)N)C(=O)N[C@H](CCCCN)C(N)=O [ARC-1138] | subnanomolar or low nanomolar |

These compounds were tested against PKAc (Homo sapiens, UniProt P17612) (assay: Measurement of dissociation kinetics of inhibitor-kinase complexes with ARC-1063). Conditions: inhibitor 5-10 nM, PKAc 10 nM, 27° C., ARC-1063 100-300 nM.
Assay type: binding
Method: Measurements of dissociation kinetics of non-labeled inhibitors from the inhibitor-kinase complexes (residence time) were carried out by mixing the solution of the examined inhibitor (5-10 nM) with PKAc (10 nM), and incubation of the solution for 15 min at 27° C., followed by addition of a high concentration of the luminescent probe ARC-1063 (final concentration of 100-300 nM), and measurement of the luminescence signal at 5 s time intervals (FIG. 10). The collected data were fitted to the first-order kinetic model yielding the dissociation rate constants for the examined inhibitors.

| Structure (SMILES) | Dissociation half-lives of PKAc complexes |
| --- | --- |
| CN[C@@H]1C[C@H]2O[C@@](C)([C@@H]1OC)n1c3ccccc3c3c4c(c5c6ccccc6n2c5c31)C(=O)NC4 [staurosporine] | 12 s |

Each compound was assayed on PKAc in living C9H6 cells (assay: Monitoring of kinase activity in living cells loaded with ARC-1139). Conditions: H89 100 μM added after Forskolin.
Assay type: cell-based
Method: CHO, C9H6 and HEK cells were cultured in F12 Nutrient Mixture supplemented with 10% fetal bovine serum, 2 mM L-glutamine, 100 U/ml penicillin and 100 μg/ml streptomycin at 37° C. in humidified atmosphere containing 5% CO2. In case of C9H6 cells, 300 μg/ml of Zeocine™ and 800 μg/ml of Geneticin® were additionally introduced to the nutrient mixture. Cells were seeded to 96-well plates (for plate reader experiments) and grown to 60%-80% confluency. The medium was replaced with fresh serum-free medium containing the luminescent probe ARC-1139 (10 μM) and incubated for 1 hour at 37° C. Subsequently, the cells were washed three times with PBS and analyzed on a PheraStar platereader with TRF optic modules [ex. 337(50) nm, em. 675(50) and 620(20) nm] using the time-resolved fluorescence measurement mode. Forskolin (final concentration of 25 μM) and H89 (final concentration of 100 μM) were added to the cells during the measurement (after 3 min and 7 min from the start of data acquisition, respectively)

| Structure (SMILES) | luminescence from live cells loaded with ARC-1139 after Forskolin |
| --- | --- |
| O=S(=O)(NCCNC/C=C/c1ccc(Br)cc1)c1cccc2cnccc12 [H89] | signal decreased |
